From patent US12077503B2, “Substituted cyclic amides and their use as herbicides” (FMC CORPORATION, priority 2015, dated 2024)

How the values were obtained:
Assay type in all cases: in vivo
Kochia (Kochia scoparia) [1] = experiment: Test A preemergence; settings: Bassia scoparia, pre-emergence, 240 h, Preemergence
Outline: (§1)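 Seeds sprayed preemergence with a directed soil spray, or plants at 2 to 10 cm height and one- to two-leaf stage sprayed postemergence, with test chemicals in a non-phytotoxic solvent mixture containing surfactant, in loam soil–sand blend. Injury rated visually against untreated controls after about 10 d in greenhouse, 0 (no effect) to 100 (complete control).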

[2] = test system: barnyardgrass (Echinochloa crus-galli); experiment: Test A preemergence; settings: Echinochloa crus-galli, pre-emergence, 240 h, Preemergence
Outline: as §1

[3] = test system: giant foxtail (Setaria faberii); experiment: Test A preemergence; settings: Setaria faberi, pre-emergence, 240 h, Preemergence
Outline: as §1

[4] = test system: pigweed (Amaranthus retroflexus); experiment: Test A preemergence; settings: Amaranthus retroflexus, pre-emergence, 240 h, Preemergence
[5] = test system: ragweed (common ragweed, Ambrosia elatior); experiment: Test A preemergence; settings: Ambrosia artemisiifolia, pre-emergence, 240 h, Preemergence
Outline: as §1

[6] = test system: ryegrass, Italian (Italian ryegrass, Lolium multiflorum); experiment: Test A preemergence; settings: Lolium multiflorum, pre-emergence, 240 h, Preemergence
Outline: as §1

[7] = test system: Galium (catchweed bedstraw, Galium aparine); experiment: Test A postemergence; settings: Galium, post-emergence, 240 h, Postemergence, read-out: Galium plant response rating (0 to 100 scale)
Outline: as §1

Kochia (Kochia scoparia) [8] = experiment: Test A postemergence; settings: Bassia scoparia, post-emergence, 240 h, Postemergence, read-out: Kochia plant response rating (0 to 100 scale)
Outline: as §1

[9] = test system: barnyardgrass (Echinochloa crus-galli); experiment: Test A postemergence; settings: Echinochloa crus-galli, post-emergence, 240 h, Postemergence
Outline: as §1

[10] = test system: blackgrass (Alopecurus myosuroides); experiment: Test A postemergence; settings: Alopecurus myosuroides, post-emergence, 240 h, Postemergence, read-out: Blackgrass plant response rating (0 to 100 scale)
Outline: as §1

corn (Zea mays) = experiment: Test A postemergence; settings: Zea mays, post-emergence, 240 h, Postemergence, read-out: Corn plant response rating (0 to 100 scale)
Outline: as §1

[11] = test system: giant foxtail (Setaria faberii); experiment: Test A postemergence; settings: Setaria faberi, post-emergence, 240 h, Postemergence, read-out: Foxtail, Giant plant response rating (0 to 100 scale)
Outline: as §1

[12] = test system: pigweed (Amaranthus retroflexus); experiment: Test A postemergence; settings: Amaranthus retroflexus, post-emergence, 240 h, Postemergence, read-out: Pigweed plant response rating (0 to 100 scale)
Outline: as §1

[13] = test system: ragweed (common ragweed, Ambrosia elatior); experiment: Test A postemergence; settings: Ambrosia artemisiifolia, post-emergence, 240 h, Postemergence, read-out: Ragweed plant response rating (0 to 100 scale)
Outline: as §1

[14] = test system: ryegrass, Italian (Italian ryegrass, Lolium multiflorum); experiment: Test A postemergence; settings: Lolium multiflorum, post-emergence, 240 h, Postemergence, read-out: Ryegrass, Italian plant response rating (0 to 100 scale)
Outline: as §1

[15] = test system: wheat (Triticum aestivum); experiment: Test A postemergence; settings: Triticum aestivum, post-emergence, 240 h, Postemergence, read-out: Wheat plant response rating (0 to 100 scale)
Outline: as §1

[16] = test system: barnyardgrass (Echinochloa crus-galli); experiment: Test B flooded paddy test; settings: Echinochloa crus-galli, 360 h, Flood, 250 g ai/ha; visually evaluated after 13 to 15 d; read-out: Plant response rating, Barnyardgrass (0 to 100 scale where 0 is no effect and 100 is complete control)
Outline: (§2)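 2-leaf plants; pots flooded 3 cm over soil; cpd added to paddy water; depth held; greenhouse 13–15 d; visual rating vs controls, 0 = no effect, 100 = complete control.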

[17] = test system: ducksalad (Heteranthera limosa); experiment: Test B flooded paddy test; settings: Heteranthera limosa, 360 h, Flood, 250 g ai/ha; visually evaluated after 13 to 15 d; read-out: Plant response rating, Ducksalad (0 to 100 scale where 0 is no effect and 100 is complete control)
Outline: as §2

rice (Oryra sativa) = experiment: Test B flooded paddy test; settings: Oryza sativa, 360 h, Flood, 250 g ai/ha; visually evaluated after 13 to 15 d; read-out: Plant response rating, Rice (0 to 100 scale where 0 is no effect and 100 is complete control)
Outline: as §2

[18] = test system: sedge, umbrella (small-flower umbrella sedge, Cyperus difformis); experiment: Test B flooded paddy test; settings: Cyperus difformis, 360 h, Flood, 250 g ai/ha; visually evaluated after 13 to 15 d; read-out: Plant response rating, Sedge, Umbrella (0 to 100 scale where 0 is no effect and 100 is complete control)
Outline: as §2

[19] = 125 g ai/ha, visual rating about 10 d after treatment
[20] = 31 g ai/ha, 0 is no effect, 100 is complete control

Cc1cccc([C@H]2CN(C)C(=O)[C@@H]2C(=O)Nc2cnccc2C)c1 [Compound 1344]
0%: pest or weed control at 31 g/ha (Kochia (Kochia scoparia) [1]; 31 g ai/ha, 0 to 100 scale where 0 is no effect and 100 is complete control, read-out: Kochia plant response rating) | pest or weed control at 125 g/ha (Kochia (Kochia scoparia) [1]; 125 g ai/ha, 0 to 100 scale (0 no effect, 100 complete control), read-out: Plant response rating, Kochia) | pest or weed control at 31 g/ha ([2]; 31 g ai/ha, 0 to 100 scale where 0 is no effect and 100 is complete control, read-out: Barnyardgrass plant response rating) | pest or weed control at 125 g/ha ([2]; 125 g ai/ha, 0 to 100 scale (0 no effect, 100 complete control), read-out: Plant response rating, Barnyardgrass) | pest or weed control at 31 g/ha ([3]; 31 g ai/ha, 0 to 100 scale where 0 is no effect and 100 is complete control, read-out: Foxtail, Giant plant response rating) | pest or weed control at 125 g/ha ([3]; 125 g ai/ha, 0 to 100 scale (0 no effect, 100 complete control), read-out: Plant response rating, Foxtail, Giant) | pest or weed control at 31 g/ha ([4]; 31 g ai/ha, 0 to 100 scale where 0 is no effect and 100 is complete control, read-out: Pigweed plant response rating) | pest or weed control at 125 g/ha ([4]; 125 g ai/ha, 0 to 100 scale (0 no effect, 100 complete control), read-out: Plant response rating, Pigweed) | pest or weed control at 31 g/ha ([5]; 31 g ai/ha, 0 to 100 scale where 0 is no effect and 100 is complete control, read-out: Ragweed plant response rating) | pest or weed control at 125 g/ha ([5]; 125 g ai/ha, 0 to 100 scale (0 no effect, 100 complete control), read-out: Plant response rating, Ragweed) | pest or weed control at 31 g/ha ([6]; 31 g ai/ha, 0 to 100 scale where 0 is no effect and 100 is complete control, read-out: Ryegrass, Italian plant response rating) | pest or weed control at 125 g/ha ([6]; 125 g ai/ha, 0 to 100 scale (0 no effect, 100 complete control), read-out: Plant response rating, Ryegrass, Italian) | pest or weed control at 125 g/ha [7, 19] | pest or weed control at 31 g/ha [7, 20] | pest or weed control at 125 g/ha (Kochia (Kochia scoparia) [8]; [19]) | pest or weed control at 31 g/ha (Kochia (Kochia scoparia) [8]; [20]) | pest or weed control at 125 g/ha ([9]; 125 g ai/ha, visual rating about 10 d after treatment, read-out: Barnyardgrass plant response rating (0 to 100 scale, 0 no effect, 100 complete control)) | pest or weed control at 31 g/ha ([9]; 31 g ai/ha, 0 is no effect, 100 is complete control, read-out: Barnyardgrass plant response rating (0 to 100 scale)) | pest or weed control at 125 g/ha [10, 19] | pest or weed control at 31 g/ha [10, 20] | plant injury at 125 g/ha (corn (Zea mays); [19]) | plant injury at 31 g/ha (corn (Zea mays); [20]) | pest or weed control at 125 g/ha [11, 19] | pest or weed control at 31 g/ha [11, 20] | pest or weed control at 125 g/ha [12, 19] | pest or weed control at 31 g/ha [12, 20] | pest or weed control at 125 g/ha [13, 19] | pest or weed control at 31 g/ha [13, 20] | pest or weed control at 125 g/ha [14, 19] | pest or weed control at 31 g/ha [14, 20] | plant injury at 125 g/ha [15, 19] | plant injury at 31 g/ha [15, 20] | pest or weed control at 250 g/ha [16] | pest or weed control at 250 g/ha [17] | pest or weed control at 250 g/ha (rice (Oryra sativa)) | pest or weed control at 250 g/ha [18]
